# ChEMBL document CHEMBL1201862, “PubChem BioAssay data set” (2004)
#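 The compound was tested at five concentrations on cells cultured in 96-well plates, with a 48-hour exposure period. At the GI50, growth is halved.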 Activity calls are given as the source filed them. Rule as the data show it: active = GI50 up to about 1.1 µM and inactive = higher.
# Assays:
# Assay in all cases: inhibition of tumour cell growth, NCI panel, 48 h
# 786-0 = test system: 786-0
# A498 = test system: A498
# A549 = test system: A549
# ACHN = test system: ACHN
# BT-549 = test system: BT-549
# CAKI-1 = test system: CAKI-1
# COLO 205 = test system: COLO 205
# DU-145 = test system: DU-145
# EKVX = test system: EKVX
# HCC 2998 = test system: HCC 2998
# HCT-116 = test system: HCT-116
# HCT-15 = test system: HCT-15
# HOP-92 = test system: HOP-92
# HT-29 = test system: HT-29
# Hs-578T = test system: Hs-578T
# IGROV-1 = test system: IGROV-1
# K562 = test system: K562
# KM12 = test system: KM12
# LOX IMVI = test system: LOX IMVI
# M14 = test system: M14
# MCF7 = test system: MCF7
# MDA-MB-231 = test system: MDA-MB-231
# MDA-MB-435 = test system: MDA-MB-435
# MDA-N = test system: MDA-N
# MOLT-4 = test system: MOLT-4
# Malme-3M = test system: Malme-3M
# NCI-H226 = test system: NCI-H226
# NCI-H23 = test system: NCI-H23
# NCI-H460 = test system: NCI-H460
# NCI-H522 = test system: NCI-H522
# NCI/ADR-RES = test system: NCI/ADR-RES
# OVCAR-3 = test system: OVCAR-3
# OVCAR-4 = test system: OVCAR-4
# OVCAR-5 = test system: OVCAR-5
# OVCAR-8 = test system: OVCAR-8
# PC-3 = test system: PC-3
# RPMI-8226 = test system: RPMI-8226
# SF-268 = test system: SF-268
# SF-295 = test system: SF-295
# SF-539 = test system: SF-539
# SK-MEL-28 = test system: SK-MEL-28
# SK-MEL-2 = test system: SK-MEL-2
# SK-MEL-5 = test system: SK-MEL-5
# SK-OV-3 = test system: SK-OV-3
# SN12C = test system: SN12C
# SNB-19 = test system: SNB-19
# SW-620 = test system: SW-620
# T47D = test system: T47D
# TK-10 = test system: TK-10
# U-251 = test system: U-251
# UACC-257 = test system: UACC-257
# UACC-62 = test system: UACC-62
# UO-31 = test system: UO-31
smiles,measurement,setting,value
CO[C@@]12C[C@@H](C)[C@]34O[C@H]3C[C@]3(C)O[C@]43CC1=C(C)C(=O)O2,GI50,786-0,> 100 µM (inactive)
same,GI50,A498,> 100 µM (inactive)
same,GI50,A549,> 100 µM (inactive)
same,GI50,ACHN,> 100 µM (inactive)
same,GI50,BT-549,> 100 µM (inactive)
same,GI50,CAKI-1,> 100 µM (inactive)
same,GI50,COLO 205,> 100 µM (inactive)
same,GI50,DU-145,> 100 µM (inactive)
same,GI50,EKVX,> 100 µM (inactive)
same,GI50,HCC 2998,> 100 µM (inactive)
same,GI50,HCT-116,> 100 µM (inactive)
same,GI50,HCT-15,> 100 µM
same,GI50,HOP-92,> 100 µM (inactive)
same,GI50,HT-29,> 100 µM (inactive)
same,GI50,Hs-578T,> 100 µM (inactive)
same,GI50,IGROV-1,38.8 µM (inactive)
same,GI50,K562,> 100 µM (inactive)
same,GI50,KM12,> 100 µM (inactive)
same,GI50,LOX IMVI,> 100 µM (inactive)
same,GI50,M14,> 100 µM (inactive)
same,GI50,MCF7,> 100 µM (inactive)
same,GI50,MDA-MB-231,> 100 µM (inactive)
same,GI50,MDA-MB-435,> 100 µM (inactive)
same,GI50,MDA-N,> 100 µM (inactive)
same,GI50,MOLT-4,< 0.01 µM (active)
same,GI50,Malme-3M,> 100 µM (inactive)
same,GI50,NCI-H226,> 100 µM (inactive)
same,GI50,NCI-H23,> 100 µM (inactive)
same,GI50,NCI-H460,> 100 µM (inactive)
same,GI50,NCI-H522,> 100 µM (inactive)
same,GI50,NCI/ADR-RES,> 100 µM (inactive)
same,GI50,OVCAR-3,> 100 µM (inactive)
same,GI50,OVCAR-4,> 100 µM (inactive)
same,GI50,OVCAR-5,> 100 µM (inactive)
same,GI50,OVCAR-8,> 100 µM (inactive)
same,GI50,PC-3,> 100 µM (inactive)
same,GI50,RPMI-8226,> 100 µM (inactive)
same,GI50,SF-268,> 100 µM (inactive)
same,GI50,SF-295,> 100 µM (inactive)
same,GI50,SF-539,> 100 µM (inactive)
same,GI50,SK-MEL-28,> 100 µM (inactive)
same,GI50,SK-MEL-2,> 100 µM (inactive)
same,GI50,SK-MEL-5,> 100 µM (inactive)
same,GI50,SK-OV-3,> 100 µM (inactive)
same,GI50,SN12C,> 100 µM (inactive)
same,GI50,SNB-19,> 100 µM (inactive)
same,GI50,SW-620,> 100 µM (inactive)
same,GI50,T47D,> 100 µM (inactive)
same,GI50,TK-10,> 100 µM (inactive)
same,GI50,U-251,> 100 µM (inactive)
same,GI50,UACC-257,> 100 µM (inactive)
same,GI50,UACC-62,> 100 µM (inactive)
same,GI50,UO-31,> 100 µM (inactive)
